Here are results for 8 compounds from patent EP1362858A1, “Pyrrolopyrimidinone derivates, process of preparation and use” (SK Chemicals Co., Ltd., priority 2002, dated 2003).

The first experiment deals with rabbit platelet PDE V (Oryctolagus cuniculus, UniProt G1SX67). In words: PDE V inhibition, PDE SPA assay kit with [3H]-cGMP. It is filed as biochemical.
Conditions: not given
Here is the method:
The rabbit platelet PDE V was prepared using the method described by Hidaka et al. (Biochim. Biophys. Acta., 429: 485 - 497, 1976) with minor modification. The plateletrich plasma (PRP) was prepared by centrifugation of freshly obtained heparinized whole blood at 360 g. Platelets were isolated from the PRP by centrifugation at 1,200 g. Platelet homogenates were prepared in the homogenization buffer (50 mM Tris-HCl buffer containing 1 mM MgCl2, pH 7.4) by sonication for 30 s per 1 mL. The homogenized solutions were then centrifuged at 40,000 × g for 2 h at 4 °C. The supernatant was loaded on the DEAE-cellulose column (20 mL bed volume, Sigma) pre-equilibrated with equilibration buffer (50 mM Tris-acetate containing 3.75 mM 2-mercaptoethanol, pH 6.0). The column was then washed with 60 mL of equilibration buffer. The PDE isozymes were eluted using a continuous gradient of 0 to 600 mM sodium acetate in the equilibration buffer (60 mL total volume). The 1.0 mL fractions were collected. A flow rate of 60 mL/h was used throughout the ion-exchange chromatography procedure. PDE activities on cAMP and cGMP were characterized as described below. The characterized fractions were pooled and stored at -80 °C until the inhibition studies.
The cyclic nucleotide PDE V activity was determined using PDE SPA assay kit (Amersham Pharmacia biotech, UK). Each reaction mixture (100 µL total volume) consisted of the column elute containing PDE V (10 µL), [^3H]-cGMP (5 µCi/mL), bovine serum albumin (0. 5 mg/mL), and MgCl2 (5 mM) in Tris-HCl buffer (15 mM, pH 7. 5). The reactions were initiated by the addition of PDE V and the samples were incubated at 30 °C for 30 min, after which the reaction was stopped by the addition of 50 µL of SPA beads. The reaction tube was then settled for 20 min and was counted on the scintillation counter (Tri-carb 1500, Packard, USA). For the inhibition study of PDE V activity, the test compounds were dissolved in dimethyl sulfoxide (DMSO) and was diluted with distilled water. The final concentration of DMSO was less than 0. 2% (v/v).
In general, IC50 refers to the concentration that gives 50% inhibition. With `CCCOc1ccc(S(=O)(=O)N2CCN(CCOC(=O)Cc3ccccc3)CC2)cc1-c1nc2c(CCC)cn(CC)c2c(=O)[nH]1` [Example 24, 5-Ethyl-2-{5-[4-(2-phenylacetoxyethyl)piperazin-1-ylsulfonyl]-2-n-propoxyphenyl}-7-n-propyl-3,5-dihydro-4H-pyrrolo[3,2-d]pyrimidin-4-one], the IC50 came out at 8.68 nM.

Staying with this experiment, now noted: in vitro inhibition of cGMP PDE V; 30 °C, 30 min; read-out: IC50.
For the compound `CCCOc1ccc(S(=O)(=O)N2CCN(CCOC(C)=O)CC2)cc1-c1nc2c(CCCF)cn(CC)c2c(=O)[nH]1` [Example 19, 2-{5-[4-(2-Acetoxyethyl)piperazin-1-ylsulfonyl]-2-n-propoxyphenyl}-5-ethyl-7-(3-fluoropropyl)-3,5-dihydro-4H-pyrrolo[3,2-d]pyrimidin-4-one], the IC50 was determined as 1.48 nM. The same measure, in the same setting: the figure for `CCCOc1ccc(S(=O)(=O)N2CCN(CCOC(=O)c3ccccc3)CC2)cc1-c1nc2c(CCC)cn(CC)c2c(=O)[nH]1` [Example 16, 2-{5-[4-(2-Benzoyloxyethyl)piperazin-1-ylsulfonyl]-2-n-propoxyphenyl}-5-ethyl-7-n-propyl-3,5-dihydro-4H-pyrrolo[3,2-d]pyrimidin-4-one] is 14.4 nM; for `CCCOc1ccc(S(=O)(=O)N2CCN(CCOC(=O)CC)CC2)cc1-c1nc2c(CCC)cn(CC)c2c(=O)[nH]1` [Example 10, 5-Ethyl-2-{5-[4-(2-propionyloxyethyl)piperazin-1-ylsulfonyl]-2-n-propoxyphenyl}-7-n-propyl-3,5-dihydro-4H-pyrrolo[3,2-d]pyrimidin-4-one] it is 5.73 nM. The same measure, in the same setting: the figure for `CCCOc1ccc(S(=O)(=O)N2CCN(CCOC(=O)OCC)CC2)cc1-c1nc2c(CCC)cn(CC)c2c(=O)[nH]1` [Example 17, 2-{5-[4-(2-Ethoxycarbonyloxyethyl)piperazin-1-ylsulfonyl]-2-n-propoxyphenyl}-5-ethyl-7-n-propyl-3,5-dihydro-4H-pyrrolo[3,2-d]pyrimidin-4-one] is 7.65 nM; for `CCCOc1ccc(S(=O)(=O)N2CCN(CCOC(=O)C(C)C)CC2)cc1-c1nc2c(CCC)cn(CC)c2c(=O)[nH]1` [Example 14, 5-Ethyl-2-{5-[4-(2-isobutyryloxyethyl)piperazin-1-ylsulfonyl]-2-n-propoxyphenyl}-7-n-propyl-3,5-dihydro-4H-pyrrolo[3,2-d]pyrimidin-4-one] it is 8.8 nM. For the compound `CCCOc1ccc(S(=O)(=O)N2CCN(CCOC(=O)CCC)CC2)cc1-c1nc2c(CCC)cn(CC)c2c(=O)[nH]1` [Example 12, 2-{5-[4-(2-Butyryloxyethyl)piperazin-1-ylsulfonyl]-2-n-propoxyphenyl}-5-ethyl-7-n-propyl-3,5-dihydro-4H-pyrrolo[3,2-d]pyrimidin-4-one], the IC50 amounted to 8.87 nM. `CCCOc1ccc(S(=O)(=O)N2CCN(CCOC(C)=O)CC2)cc1-c1nc2c(CCC)cn(CC)c2c(=O)[nH]1` [Example 7, 2-{5-[4-(2-Acetoxyethyl)piperazin-1-ylsulfonyl]-2-n-propoxyphenyl}-5-ethyl-7-n-propyl-3,5-dihydro-4H-pyrrolo[3,2-d]pyrimidin-4-one]: the IC50 came to 2.84 nM.
